Results as given in paper PMC6001238, “Iterative Chemical Engineering of Vancomycin Leads to Novel Vancomycin Analogs With a High in Vitro Therapeutic Index” (Frontiers in Microbiology, 2018).
Converted amounts (≈) assume the structure as drawn.

What was measured:
[1] = test system: S. aureus VSSA (ATCC 6538); experiment: MIC, broth microdilution, vancomycin-sensitive S. aureus (VSSA/MSSA, ATCC 6538); format: cell-based, Staphylococcus aureus; conditions: for MIC: Staphylococcus aureus VSSA, read-out: MIC; for MIC-fold improvement vs. vancomycin: VSSA, ratio of MIC of vancomycin and MIC of analogue
Protocol: (§1) The minimum inhibitory concentration (MIC) was determined using the broth microdilution method according to the antimicrobial susceptibility testing standards of the clinical and laboratory standards institute ([Clinical and Laboratory Standards Institute [CLSI], 2012]). Ultrapure water and non-inoculated broth were used as controls. In one case, a final concentration of 10 μM vancomycin was included with the vancomycin analog or control antibiotic.

[2] = test system: human T-lymphocyte (CEM) cells; experiment: Cytostatic activity, CEM cell proliferation; format: cell-based; conditions: mean ± SD of three experiments; highest concentration tested 250 µM; 3 days; read-out: Toxicity (IC50) CEM
Protocol: (§2) Murine leukemia (L1210), human T-lymphocyte (CEM) and the human cervix carcinoma (HeLa) cell line were suspended at 300,000–500,000 cells/mL of culture medium, and 100 μL of a cell suspension was added to 100 μL of an appropriate dilution of the test compounds in wells of 96-well microtiter plates. After incubation at 37°C for 2 (L1210), 3 (CEM), or 4 (HeLa) days, the cell number was determined using a Coulter counter. The IC50 was defined per cell type as the compound concentration required to inhibit cell proliferation by 50% compared to the negative control ([Glowacka et al., 2017]).

S. aureus VISA/HIP5827 = experiment: MIC, broth microdilution, vancomycin-intermediate S. aureus VISA HIP5827; format: cell-based, Staphylococcus aureus; conditions: for MIC: Staphylococcus aureus VISA/HIP5827, read-out: MIC; for MIC-fold improvement vs. vancomycin: VISA/HIP5827, ratio of MIC of vancomycin and MIC of analogue
Protocol: as §1

MRSA KS1 = experiment: MIC, broth microdilution, MRSA KS1; format: cell-based, Staphylococcus aureus; conditions: for MIC-fold improvement vs. vancomycin: MRSA KS1, ratio of MIC of vancomycin and MIC of analogue; for MIC: Staphylococcus aureus MRSA KS1, read-out: MIC
Protocol: as §1

[3] = test system: Murine leukemia (L1210) cells; experiment: Cytostatic activity, L1210 cell proliferation; format: cell-based; conditions: mean ± SD of three experiments; highest concentration tested 250 µM; 2 days; read-out: Toxicity (IC50) L1210
Protocol: as §2

[4] = test system: L1210, CEM and HeLa cell lines; experiment: Cytostatic activity, average or summary over L1210, CEM and HeLa; format: cell-based; conditions: average of L1210, CEM and HeLa; read-out: Toxicity (IC50) Average
Protocol: as §2

MRSA KS2 = experiment: MIC, broth microdilution, MRSA KS2; format: cell-based, Staphylococcus aureus; conditions: for MIC-fold improvement vs. vancomycin: MRSA KS2, ratio of MIC of vancomycin and MIC of analogue; for MIC: Staphylococcus aureus MRSA KS2, read-out: MIC
Protocol: as §1

E. faecalis VRE 6 = experiment: MIC, broth microdilution, vancomycin-resistant E. faecalis VRE 6 (VanA); format: cell-based, Enterococcus faecalis; conditions: for MIC: Enterococcus faecalis VRE 6 (vancomycin-resistant), read-out: MIC; for MIC-fold improvement vs. vancomycin: VRE 6, ratio of MIC of vancomycin and MIC of analogue
Protocol: as §1

E. faecalis VSE 1 = experiment: MIC, broth microdilution, vancomycin-sensitive E. faecalis (VSE 1); format: cell-based, Enterococcus faecalis; conditions: for MIC: Enterococcus faecalis VSE 1 (vancomycin-sensitive), read-out: MIC; for MIC-fold improvement vs. vancomycin: VSE 1, ratio of MIC of vancomycin and MIC of analogue
Protocol: as §1

E. faecalis VRE 29 = experiment: MIC, broth microdilution, vancomycin-resistant E. faecalis VRE 29 (VanA); format: cell-based, Enterococcus faecalis; conditions: for MIC: Enterococcus faecalis VRE 29 (vancomycin-resistant), read-out: MIC; for MIC-fold improvement vs. vancomycin: VRE 29, ratio of MIC of vancomycin and MIC of analogue
Protocol: as §1

E. faecalis VRE 37 = experiment: MIC, broth microdilution, vancomycin-resistant E. faecalis VRE 37 (VanA); format: cell-based, Enterococcus faecalis; conditions: for MIC: Enterococcus faecalis VRE 37 (vancomycin-resistant), read-out: MIC
Protocol: as §1

[5] = test system: human cervix carcinoma (HeLa) cells; experiment: Cytostatic activity, HeLa cell proliferation; format: cell-based; conditions: mean ± SD of three experiments; highest concentration tested 250 µM; 4 days; read-out: Toxicity (IC50) HeLa
Protocol: as §2

E. faecalis VRE 53 = experiment: MIC, broth microdilution, vancomycin-resistant E. faecalis VRE 53 (VanA); format: cell-based, Enterococcus faecalis; conditions: for MIC: Enterococcus faecalis VRE 53 (vancomycin-resistant), read-out: MIC; for MIC-fold improvement vs. vancomycin: VRE 53, ratio of MIC of vancomycin and MIC of analogue
Protocol: as §1

MRSA KS6 = experiment: MIC, broth microdilution, MRSA KS6; format: cell-based, Staphylococcus aureus; conditions: for MIC-fold improvement vs. vancomycin: MRSA KS6, ratio of MIC of vancomycin and MIC of analogue; for MIC: Staphylococcus aureus MRSA KS6, read-out: MIC
Protocol: as §1

S. aureus VRSA = experiment: MIC, broth microdilution, vancomycin-resistant S. aureus (VRSA); format: cell-based, Staphylococcus aureus; conditions: for MIC: Staphylococcus aureus VRSA, read-out: MIC; for MIC-fold improvement vs. vancomycin: VRSA, ratio of MIC of vancomycin and MIC of analogue
Protocol: as §1

MRSA KS89 = experiment: MIC, broth microdilution, MRSA KS89; format: cell-based, Staphylococcus aureus; conditions: for MIC-fold improvement vs. vancomycin: MRSA KS8, ratio of MIC of vancomycin and MIC of analogue; for MIC: Staphylococcus aureus MRSA KS8, read-out: MIC
Protocol: as §1

Structure (SMILES)	MIC [1] [µM]	MIC-fold improvement vs. vancomycin [1]	IC50 [2] [µM]	MIC (S. aureus VISA/HIP5827) [µM]	MIC-fold improvement vs. vancomycin (S. aureus VISA/HIP5827)	MIC-fold improvement vs. vancomycin (MRSA KS1)	MIC (MRSA KS1) [µM]	IC50 [3] [µM]	IC50 [4] [µM]	MIC-fold improvement vs. vancomycin (MRSA KS2)	MIC (MRSA KS2) [µM]	MIC (E. faecalis VRE 6) [µM]	MIC-fold improvement vs. vancomycin (E. faecalis VRE 6)	MIC (E. faecalis VSE 1) [µM]	MIC-fold improvement vs. vancomycin (E. faecalis VSE 1)	MIC (E. faecalis VRE 29) [µM]	MIC-fold improvement vs. vancomycin (E. faecalis VRE 29)	MIC (E. faecalis VRE 37) [µM]	IC50 [5] [µM]	MIC (E. faecalis VRE 53) [µM]	further results
CN[C@H](CC(C)C)C(=O)N[C@H]1C(=O)N[C@@H](CC(N)=O)C(=O)N[C@H]2C(=O)N[C@H]3C(=O)N[C@H](C(=O)N[C@H](C(=O)NCCNC(=O)/C=C/c4ccc(NS(=O)(=O)c5ccc(C(C)C)cc5)cc4)c4cc(O)cc(O)c4-c4cc3ccc4O)[C@H](O)c3ccc(c(Cl)c3)Oc3cc2cc(c3O[C@@H]2O[C@H](CO)[C@@H](O)[C@H](O)[C@H]2O[C@H]2C[C@](C)(N)[C@H](O)[C@H](C)O2)Oc2ccc(cc2Cl)[C@H]1O [Vanc-56]	0.39 (≈ 0.709 µg/mL)	2	≥ 250	0.78 (≈ 1.42 µg/mL)	8	1	0.78 (≈ 1.42 µg/mL)	> 250	201	4	0.20 (≈ 0.364 µg/mL)	3.13 (≈ 5.69 µg/mL)	64	0.39 (≈ 0.709 µg/mL)	4	6.25 (≈ 11.4 µg/mL)	64	6.25 (≈ 11.4 µg/mL)	104 ± 17	6.25 (≈ 11.4 µg/mL)	MIC-fold improvement vs. vancomycin (E. faecalis VRE 37; VRE 37, ratio of MIC of vancomycin and MIC of analogue): 64; MIC-fold improvement vs. vancomycin (E. faecalis VRE 53): 64; MIC-fold improvement vs. vancomycin (MRSA KS6): 4; MIC (MRSA KS6): 0.20 µM (≈ 0.364 µg/mL); MIC (S. aureus VRSA): 0.39 µM (≈ 0.709 µg/mL); MIC-fold improvement vs. vancomycin (S. aureus VRSA): 256; MIC-fold improvement vs. vancomycin (MRSA KS89): 2; MIC (MRSA KS89): 0.39 µM (≈ 0.709 µg/mL)
CN[C@H](CC(C)C)C(=O)N[C@H]1C(=O)N[C@@H](CC(N)=O)C(=O)N[C@H]2C(=O)N[C@H]3C(=O)N[C@H](C(=O)N[C@H](C(=O)NCC(=O)Nc4ccc(N5CCOCC5)cc4)c4cc(O)cc(O)c4-c4cc3ccc4O)[C@H](O)c3ccc(c(Cl)c3)Oc3cc2cc(c3O[C@@H]2O[C@H](CO)[C@@H](O)[C@H](O)[C@H]2O[C@H]2C[C@](C)(N)[C@H](O)[C@H](C)O2)Oc2ccc(cc2Cl)[C@H]1O [Vanc-8]	1.56 (≈ 2.6 µg/mL)	0.5	≥ 250	1.56 (≈ 2.6 µg/mL)	4	1	0.78 (≈ 1.3 µg/mL)	> 250	202	1	0.78 (≈ 1.3 µg/mL)	12.5 (≈ 20.8 µg/mL)	16	0.78 (≈ 1.3 µg/mL)	2	25 (≈ 41.7 µg/mL)	16	25 (≈ 41.7 µg/mL)	107 ± 25	12.5 (≈ 20.8 µg/mL)	MIC-fold improvement vs. vancomycin (E. faecalis VRE 53): 32; MIC-fold improvement vs. vancomycin (MRSA KS6): 0.5; MIC (MRSA KS6): 1.56 µM (≈ 2.6 µg/mL); MIC (S. aureus VRSA): 25 µM (≈ 41.7 µg/mL); MIC-fold improvement vs. vancomycin (S. aureus VRSA): 4; MIC-fold improvement vs. vancomycin (MRSA KS89): 1; MIC (MRSA KS89): 0.78 µM (≈ 1.3 µg/mL)
